Assay results from US20040242545A1, “Remedy for glaucoma comprising as the active ingredient compound having p13 kinase inhibitory effect” (Santen Phamaceutical Co., Ltd., priority 2001, published 2004).

Key:
Assay type in all cases: in vivo
intraocular pressure [1] = test: Intraocular pressure measurement after administration into rabbit anterior chamber; settings: for Difference of intraocular pressure, 2 hours after administration / Difference of intraocular pressure, 4 hours after administration / Difference of intraocular pressure, 6 hours after administration: vs just before administration; for Difference of intraocular pressure, 2 hours before administration: pre-dose value vs just before administration; for Difference of intraocular pressure, just before administration: reference time point; for Maximum breadth of the intraocular pressure reduction: on 6 hours after administration
Experimental: In order to examine the influence of the compound having a PI3 kinase blocking action upon the intraocular pressure reduction, measurement of intraocular pressure was conducted using an applanation tonometer or a pneumatic applanation tonometer. LY294002 and wortmannin were provided as test compounds. The former compound was dissolved in methanol to give the concentration of 10^-1 M, and thereto was added 2-hydroxypropyl-β-cyclodextrin as a solubilizer. This solution was diluted in physiological saline to give a LY294002 solution having the concentration of 10^-3 M. The amount of used 2-hydroxypropyl-β-cyclodextrin was determined to make the final concentration thereof to be 4×10^-3 M. Wortmannin was dissolved in dimethylsulfoxide to give the concentration of 10^-1 M for use in the test of administration into anterior chamber, and the obtained solution was diluted in physiological saline to give solutions having the concentration of 10^-4 M and 10^-5 M. Furthermore, dissolution of the compound was conducted in dimethylsulfoxide to give the concentration of 10^-1 M for use in the instillation test, and the obtained solution was diluted in physiological saline to give a 0.04284% (10^-3 M) solution in a suspension state. Rabbit intraocular pressure measurement: An electric current source of a tonometer (pneutonometer model 30 classic) was turned on, and calibration was conducted. […] injection needle was attached to a microsyringe, and a test compound solution or a vehicle was aspirated therein. A rabbit positioner made of aluminum for use in administration into anterior chamber was placed on a table made of aluminum. Further, a rabbit positioner made of wood for use in measurement of intraocular pressure was separately placed on the table made of aluminum. Administration into rabbit anterior chamber: A rabbit was placed on a rabbit positioner made of aluminum for use in administration into anterior chamber, and 0.4% oxybuprocaine hydrochloride was instilled to both eyes with one drop. After fixing an eye lid retractor, the bulbar conjunctiva was held with tweezers, and the needle point was passed from corneallimbus into corneal stroma in the […] direction with the depth of about 2 to 3 mm. Thereafter, the needlepoint was pierced into the anterior chamber, where the test compound solution was infused in an amount of 20 μL. […] Following the completion of the administration operation, the rabbit was brought back to the cage. The rabbit was brought out from the cage on two hours before the administration, just before the administration, and on 2, 4 and 6 hours after the administration, and was placed on the positioner made of wood. Oxybuprocaine hydrochloride at the concentration of 0.4% was instilled to both eyes, and intraocular pressure was measured after fixing the eye lid retractor. The vehicle was administered in a similar manner. Using the intraocular pressure just before the administration as a reference, results are shown by difference (mmHg) between the intraocular pressure of the reference and the intraocular pressure at each time point of the measurement. As obvious from Table 1, the intraocular pressure reduction was observed after the administration of LY294002. Maximum breadth of the intraocular pressure reduction (maximum value of the difference between values of the group administered with the vehicle and the group administered with the test compound) was observed on 6 hours after the administration of 10^-3 M LY294002, with the value of 3.7 mmHg.

intraocular pressure [2] = test: Intraocular pressure measurement after instillation to monkey
Experimental: (§1) In order to examine the influence of the compound having a PI3 kinase blocking action upon the intraocular pressure reduction, measurement of intraocular pressure was conducted using an applanation tonometer or a pneumatic applanation tonometer. Wortmannin was dissolved in dimethylsulfoxide to give the concentration of 10^−1 M for use in the test of administration into anterior chamber, and the obtained solution was diluted in physiological saline to give solutions having the concentration of 10^−4 M and 10^−5 M. Furthermore, dissolution of the compound was conducted in dimethylsulfoxide to give the concentration of 10^−1 M for use in the instillation test, and the obtained solution was diluted in physiological saline to give a 0.04284% (10^−3 M) solution in a suspension state. Monkey intraocular pressure measurement: Measurement of intraocular pressure was conducted using a pneumatic applanation tonometer (Alcon Japan. Ltd.). Test of instillation to monkey: The test compound solution in an amount of 20 μL was instilled to the eye to be administered. The measurement time of the intraocular pressure was on one hour before the administration, just before the administration, and on 2, 4 and 6 hours after the administration. Using the intraocular pressure just before the administration as a reference, results are shown by difference (mmHg) between the intraocular pressure of the reference and the intraocular pressure at each time point of the measurement. As obvious from Table 1, the intraocular pressure reduction was observed after the administration of LY294002. Maximum breadth of the intraocular pressure reduction (maximum value of the difference between values of the group administered with the vehicle and the group administered with the test compound) was observed on 6 hours after the administration of 10^−3 M LY294002, with the value of 3.7 mmHg.

intraocular pressure [3] = test: Intraocular pressure measurement after administration into monkey anterior chamber
Experimental: as §1, with “Ltd.). Administration into monkey anterior chamber:” for “Ltd.). Test of instillation to monkey:”, “The administration was carried out” for “The test compound solution”, “in accordance with the process for administering” for “in an amount of 20 μL was instilled”, “the rabbit.” for “the eye to be administered.”, “The dosage amount was 10 μL, and the” for “The”

[4] = 10^−3 M LY294002, 20 μL, mean of 6
[5] = instillation, 0.04284% (10^−3 M) wortmannin suspension, 20 μL, vs just before administration, mean of 5
[6] = 10^−4 M wortmannin, 20 μL, mean of 4
[7] = 10^−5 M wortmannin, 20 μL, mean of 4
[8] = 10^−4 M wortmannin, 10 μL, vs just before administration

## O=c1cc(N2CCOCC2)oc2c(-c3ccccc3)cccc12 [LY294002, 2-(4-morpholinyl)-8-phenyl-4H-1-benzopyran-4-one]
Intraocular pressure [1]; [4]
  Difference of intraocular pressure, 2 hours after administration: −3.2 mmHg
  Difference of intraocular pressure, 4 hours after administration: −2.7 mmHg
  Difference of intraocular pressure, 6 hours after administration: −2.1 mmHg
Intraocular pressure [1]; 10^−3 M LY294002, on 6 hours after administration
  Maximum breadth of the intraocular pressure reduction (maximum difference between vehicle group and test compound group): 3.7 mmHg
Intraocular pressure [1]; 10^−3 M LY294002 group, 20 μL, mean of 6
  Difference of intraocular pressure, 2 hours before administration: 1.9 mmHg
Intraocular pressure [1]; 10^−3 M LY294002 group, mean of 6
  Difference of intraocular pressure, just before administration: 0.0 mmHg

## COC[C@H]1OC(=O)c2coc3c2[C@@]1(C)C1=C(C3=O)[C@@H]2CCC(=O)[C@@]2(C)C[C@H]1OC(C)=O [wortmannin]
Intraocular pressure [2]; instillation of wortmannin (0.04284%), on 4 hours after administration
  Maximum breadth of the intraocular pressure reduction: 2.8 mmHg
Intraocular pressure [2]; instillation, 0.04284% (10^−3 M) wortmannin group, 20 μL, pre-dose value vs just before administration, mean of 5
  Difference of intraocular pressure, 1 hours before administration: 1.1 mmHg
Intraocular pressure [2]; [5]
  Difference of intraocular pressure, 2 hours after administration: −2.6 mmHg
  Difference of intraocular pressure, 4 hours after administration: −3.4 mmHg
  Difference of intraocular pressure, 6 hours after administration: −1.5 mmHg
Intraocular pressure [2]; instillation, 0.04284% wortmannin group, reference time point, mean of 5
  Difference of intraocular pressure, just before administration: 0.0 mmHg
Intraocular pressure [1]; 10^−4 M wortmannin group, 20 μL, mean of 4
  Difference of intraocular pressure, 2 hours before administration: 2.2 mmHg
Intraocular pressure [1]; 10^−4 M wortmannin group, mean of 4
  Difference of intraocular pressure, just before administration: 0.0 mmHg
Intraocular pressure [1]; [6]
  Difference of intraocular pressure, 2 hours after administration: −1.2 mmHg
  Difference of intraocular pressure, 4 hours after administration: −2.8 mmHg
  Difference of intraocular pressure, 6 hours after administration: −3.0 mmHg
Intraocular pressure [1]; 10^−4 M wortmannin
  Maximum breadth of the intraocular pressure reduction: 6.9 mm Hg
Intraocular pressure [1]; 10^−5 M wortmannin group, 20 μL, mean of 4
  Difference of intraocular pressure, 2 hours before administration: 1.2 mmHg
Intraocular pressure [1]; 10^−5 M wortmannin group, mean of 4
  Difference of intraocular pressure, just before administration: 0.0 mmHg
Intraocular pressure [1]; [7]
  Difference of intraocular pressure, 2 hours after administration: −1.5 mmHg
  Difference of intraocular pressure, 4 hours after administration: −1.0 mmHg
  Difference of intraocular pressure, 6 hours after administration: 0.6 mmHg
Intraocular pressure [1]; 10^−5 M wortmannin
  Maximum breadth of the intraocular pressure reduction: 3.3 mmHg
Intraocular pressure [3]; 10^−4 M wortmannin group, 10 μL, pre-dose value vs just before administration
  Difference of intraocular pressure, 1 hours before administration: 0.7 mmHg
Intraocular pressure [3]; 10^−4 M wortmannin group, reference time point
  Difference of intraocular pressure, just before administration: 0.0 mmHg
Intraocular pressure [3]; [8]
  Difference of intraocular pressure, 2 hours after administration: −4.8 mmHg
  Difference of intraocular pressure, 4 hours after administration: −4.3 mmHg
  Difference of intraocular pressure, 6 hours after administration: −2.1 mmHg
Intraocular pressure [3]; wortmannin (10^−4 M), on 2 hours after administration
  Maximum intraocular pressure reduction: 4.5 mmHg
